Test results reported in paper PMC10318456, “Selective inhibitors of the PSEN1–gamma-secretase complex” (The Journal of Biological Chemistry, 2023).

How the values were obtained:
[1] = biological target: T1, PSEN1 S169A–APH1A γ-secretase complex (Homo sapiens, UniProt P49768, S169A); assay: Aβ40 secretion, MEF cell pool restored with PSEN1 S169A–APH1A; format: cell-based; conditions: PSEN1 S169A (TM3)–APH1A cell pool; N = 3 to 4; mean (95% CI); decimal comma
T1 construct: expressed in transfected cells; host or cells: Psen1/2 double KO/Aph1ABC triple KO MEFs, pools without clonal selection
Experimental: (§1) We turned to experimental site–directed mutagenesis and selected a series of amino acids (Fig. 3) in the entrance channel for mutation to alanine. […] More importantly, they were all enzymatically active as shown by the secretion of Aβ40 in the supernatants of the cell cultures (Fig. 3B).
(§2) Conditional Psen1/2 double KO mice were crossed with conditional Aph1ABC triple KO mice ([29], [52], [58], [59]). At embryonic day 7.5, embryos were dissected and dissociated, and cells were plated in the presence of Dulbecco’s modified Eagle’s medium (DMEM)/F12 50% fetal calf serum (FCS) (Invitrogen). Primary MEFs were immortalized by transduction with LargeT antigen. Psen1/2 double KO/Aph1ABC triple KO MEFs were generated by transduction with a Cre-GFP–expressing adenoviral vector, and GFP-positive MEFs were sorted by fluorescence-activated cell sorting analysis. Psen1/2 Aph1ABC-deficient MEFs were maintained in DMEM/f12 10% FCS. […]
(§3) The number of plated cells and incubation times were determined in respect to linearity of Aβ peptide secretion, the dynamic range of Aβ peptide quantification in the medium, and sensitivity to dimethylsulfoxide (DMSO). […] The cell viability was assessed using the CellTiter-Glo Luminescent assay (Promega) that measures ATP production. […] We however measured five compounds at the Leuven site and noticed that absolute IC50 values were different (Fig. S2). […]

[2] = biological target: T2, PSEN1 L166A–APH1A γ-secretase complex (Homo sapiens, UniProt P49768, L166A); assay: Aβ40 secretion, MEF cell pool restored with PSEN1 L166A–APH1A; format: cell-based; conditions: PSEN1 L166A (TM3)–APH1A cell pool; N = 3 to 4; mean (95% CI); decimal comma
T2 construct: expressed in transfected cells; host or cells: Psen1/2 double KO/Aph1ABC triple KO MEFs, pools without clonal selection
Experimental: as §1, §2, §3

[3] = system: PSEN1 versus PSEN2 γ-secretase complexes; assay: Comparison of the four MEF cell lines: selectivity between γ-secretase complexes (IC50 ratios); format: cell-based, human
Source text: Mouse embryonic fibroblast (MEF) cells deficient for the Psen and Aph1 genes (Psen1/2^−/−, Aph1ABC^−/−) were reconstituted with human PSEN1 or PSEN2 and with human APH1A or APH1B to generate four independent cell lines, each constitutively expressing exclusively one type of γ-secretase complex (Fig. S1A) ([19]). A human APP-C99-GFP reporter was introduced to enable the measurement of Aβ peptides in the conditioned media of the cells to monitor γ-secretase activity. The assay was established in a 96-well format.
GraphPad Prism 7 software was used to generate inhibition fitting curves (four-parameter logistic equation, nonlinear regression) and to determine IC50 and 95% CI values (Fig. S2). Selectivity values (IC50 ratios of PSEN1 versus PSEN2) above 10 are highlighted in red.
(§4) The number of plated cells and incubation times were determined in respect to linearity of Aβ peptide secretion, the dynamic range of Aβ peptide quantification in the medium, and sensitivity to dimethylsulfoxide (DMSO). […] MEF cells were plated in DMEM F12 supplemented with 10% FCS at 10,000 cells per well in 96-well clear bottom plates in the late afternoon and cultured for 16 h at 37 °C, 5% CO2. In the morning of the second day, the medium was replaced with 60 μl of DMEM/F12 supplemented with 2% FCS, and GSI or DMSO (controls) were added. Compounds were tested in serial dilutions with concentrations ranging from […] to 0.1 nM with 3-fold changes. The final concentration of DMSO in all wells was 0.2%. Plates were put in the incubator again at 37 °C, 5% CO2. After 8 h, the culture media were collected, and 30 μl was used to measure Aβ40 peptides. The cell viability was assessed using the CellTiter-Glo Luminescent assay (Promega) that measures ATP production. All screens were performed at one site, and reported IC50 values throughout the manuscript are from this site (Beerse) unless otherwise indicated.
GraphPad Prism 7 software (https://www.graphpad.com) was used to generate inhibition fitting curves (four-parameter logistic equation, nonlinear regression) and to determine IC50 values and 95% CI.

[4] = biological target: T3, PSEN1 L172A–APH1A γ-secretase complex (Homo sapiens, UniProt P49768, L172A); assay: Aβ40 secretion, MEF cell pool restored with PSEN1 L172A–APH1A; format: cell-based; conditions: for increase in binding affinity by alanine substitution of L172: PSEN1 L172A versus WT
T3 construct: expressed in transfected cells; host or cells: Psen1/2 double KO/Aph1ABC triple KO MEFs, pools without clonal selection
Experimental: as §1
Conditional Psen1/2 double KO mice were crossed with conditional Aph1ABC triple KO mice ([29], [52], [58], [59]). At embryonic day 7.5, embryos were dissected and dissociated, and cells were plated in the presence of Dulbecco’s modified Eagle’s medium (DMEM)/F12 50% fetal calf serum (FCS) (Invitrogen). Primary MEFs were immortalized by transduction with LargeT antigen. Psen1/2 double KO/Aph1ABC triple KO MEFs were generated by transduction with a Cre-GFP–expressing adenoviral vector, and GFP-positive MEFs were sorted by fluorescence-activated cell sorting analysis. Psen1/2 Aph1ABC-deficient MEFs were maintained in DMEM/f12 10% FCS. To rescue γ-secretase expression, Psen1/2 double KO/Aph1ABC triple KO MEFs were transduced using Murine Stem Cell Virus retroviral vector system (pMSCV) viral vectors (Clontech) containing the human coding sequences of the different PSEN and APH1 homologs and the zeocin selection marker. An Internal Ribosome Entry Site sequence was cloned between the coding sequences for PSEN and APH1 to ensure co-expression of both proteins. Stable transfected cell lines were selected using 500-μg/ml zeocin (Invitrogen). Four different combinations were made: PSEN1 and APH1AL, PSEN1 and APH1B, PSEN2 and APH1AL, and PSEN2 and APH1B. These cell lines were transduced with pMSCV viral vectors (Clontech) expressing APP-C99-GFP-puromycin. After puromycin selection (5 μg/ml), GFP-positive cells were selected through FACS sorting. For the alanine mutagenesis experiment, pMSCV PSEN1-APH1A viral vectors were generated by using a long PCR-based QuikChange strategy (Stratagene). Stable cell lines without clonal selection were generated for each mutant as described above. All cell lines were regularly tested for the absence of mycoplasma and used for maximum 20 passages in culture.
as §4, with “indicated. We however measured five compounds at the Leuven site and noticed that absolute IC50 values were different (Fig. S2). The main goal of the current work is to explore the basis for inhibitor selectivity for different γ-secretases, and selectivity was consistent in the assays at the two sites (Fig. S2).” for “indicated.”
Standard 96-well SECTOR plates (MSD) were coated with 1.5 μg/ml anti-Aβ JRFcAβ40/28 capture antibody in a final volume of 50 μl of PBS 0.05% Tween 20. After overnight incubation at 4 °C, the plates were five times rinsed with PBS 0.05% Tween 20 and blocked with 150 μl per well of casein buffer (PBS with 1% casein, pH 7.4) for 4 h at room temperature. Standards (synthetic human Aβ 1–40) were diluted in culture media. […]

Row | SMILES | IC50 [1] [µM] | IC50 [2] [µM] | selectivity toward the different γ-secretase complexes ([3]; four MEF cell lines) [fold] | IC50 ([4]; PSEN1 L172A (TM3)–APH1A cell pool, N = 3 to 4, mean (95% CI), decimal comma) [µM] | increase in binding affinity by alanine substitution of L172 [4] [fold] | selectivity for PSEN1 complexes versus PSEN2 complexes ([3]; IC50 ratios of PSEN1 versus PSEN2, MEF cell lines) [fold] | selectivity PSEN1–APH1B versus PSEN1–APH1A ([3]; MEF cell lines) [fold]
1 | C[C@H](NC(=O)Cc1cc(F)cc(F)c1)C(=O)N[C@H](C(=O)OC(C)(C)C)c1ccccc1 [DAPT] | 0.026 | 1.37 | < 10 | 0.0036 | 47 | – | –
2 | O=S(=O)(c1ccc(Cl)cc1)N1[C@H]2CC[C@@H]([C@H]1c1ccc(C(F)(F)F)cc1)[C@@H](O)C2 [(+)-9b] | 0.0078 | 0.642 | – | – | 3.1 | > 250 | 4
